Test results reported in ChEMBL document CHEMBL3352253, “ApoE secretion modulating bromotyrosine derivative from the Australian marine sponge Callyspongia sp” (2014).

System: CCF-STTG1
Test: Induction of apolipoprotein E secretion in human CCF-STTG1 cells at 40 uM after 96 hrs by ELSA relative to control
Type: functional

COc1c(Br)cc(CC(=O)C(=O)O)cc1Br
fold change (FC): 1
